Assay results from patent publication US12492403B2, “Aptamers and the use thereof in the treatment of cancer” (FUNDACIÓN PARA LA INVESTIGACIÓN BIOMÉDICA DEL HOSPITAL …, priority 2018, dated 2025).

Columns and labels:
Assay type in all cases: cell-based, human
MCF7 cells = experiment: MTT activity assay, aptamers transfected with Lipofectamine 2000
Method: (§1) FIG. 3. Effect of the aptamers on MTT activity of MCF7 and MDA-MB-231 cells. The cells were seeded in 96-well plates at a density of 10^4 cells/well. After 16-24 hours, they were transfected with aptamers apMNKQ1, apMNKQ2, apMNKQ3, and apMNKQ4 at 250 nM for 48 hours after which MTT activity assays were performed. The bars represent the mean±SEM of 3-6 independent experiments (*p<0.05, **p<0.01, and ***p<0.001 with respect to the control aptamer AT).
(§2) FIGS. 8A-8C. Effect of aptamer apMNKQ2 on MTT activity of breast cell lines. MCF7, MDA-MB-231, and MDA-MB-468 cells were seeded in 96-well plates at a density of 10^4 cells/well. […] The graphs represent the means±SEM of 3 independent experiments (*p<0.05, **p<0.01, and ***p<0.001 with respect to the control AT).
(§3) The Lipofectamine™ 2000 system (Invitrogen, USA) was used to treat cells with the different aptamers. To prepare the DNA-lipofectamine complex, lipofectamine and DNA were separately diluted in opti-MEM (Gibco, USA) and left to incubate at room temperature for 5 minutes. They were then mixed to form lipofectamine-DNA complexes and incubated for 20 minutes at room temperature. Finally, the mixture was added to the cells that had been washed twice with antibiotic-free medium to prevent the interference thereof with lipofectamine. The cells were incubated at 37° C. for 5 hours, after which the reagent was removed and a complete medium was added.
(§4) MTT activity. The cells were seeded in 96-well plates and after having been transfected, the culture medium was removed and 100 μL/well of MTT at 1 mg/ml in culture medium were added. The plates were incubated for 90 minutes in an incubator with a moisture-saturated environment at 37° C. and 5% CO2/[…] and 100 μL/well of a lysis solution (10% SDS and 10 mM HCl) were added for dissolving the crystals. After 48 hours, the reduction of MTT was determined by means of spectrophotometry in Infinite F200 (TECAN, Switzerland) at 540 nm.
(§5) The results were expressed as the percentage of viability with respect to the control or in absorbance units.

MDA-MB-231 cells [1] = experiment: as above
Method: as §1, §2, §3, §4, §5

MDA-MB-231 cells [2] = experiment: Transwell invasion assay with Matrigel; conditions: MDA-MB-231, 400 nM
Method: (§6) FIGS. 13A, 13B and 13C. Effect of aptamer apMNKQ2 on the migration and invasion of breast cell lines. The three lines of study were seeded in 6-well plates at a density of 2.5×10^5 cells/well and transfected at 24 hours with apMNKQ2 at the established working concentrations. The cell lines were deprived of serum after 6 hours and collected and re-seeded (4×10^4 cells/well) after 24 hours in a transwell […], in order to perform migration and invasion assays, respectively. At 24 hours, the membranes of the transwell are stained with Hoechst and cells that have gone through the membranes are quantified using fluorescence microscopy (FIG. 13A). The boxes (FIGS. 13B and 13C) represent the mean±the maximum and minimum of 4-5 independent experiments (*p<0.05, **p<0.01, and ***p<0.001 with respect to the control aptamer AT).
(§7) Cell migration and invasion assays were performed using transwell (Corning, USA). […] After that time, they were collected, counted, and reseeded 4×10^4 cells in 300 μl of a serum-free complete medium inside the transwell (migration) or a transwell on which a layer of 100 μL of Matrigel (Corning, USA) (invasion) had previously been polymerized. […] Finally, two washes in PBS were performed, and 5 photographs of each membrane of the transwell were taken using a fluorescence microscope (Olympus IX70). The number of cells was analyzed using the imageJ program. […]

MDA-MB-468 cells = experiment: Transwell invasion assay with Matrigel; conditions: MDA-MB-468, 50 nM
Method: as §6, §7

[3] = tested on: MCF7, MDA-MB-231, and MDAMB-468 cells; experiment: Aptamer penetration into cells (Alexa-488 fluorescence microscopy); conditions: Alexa fluor 488-conjugated aptamer 250 nM added to medium, 24 hours, compared with lipofectamine transfection
Method: FIGS. 16A & 16B. Study of aptamer apMNKQ2 penetration into cells. MCF7, MDA-MB-231, and MDAMB-468 cells were seeded in 24-well plates with a cover glass at a density of 3×10^4 cells/well, with the transfection/addition of apMNKQ2 labeled with Alexa-488 at 250 nM at 24 hours. Twenty-four hours after transfection, the cells were fixed, stained with Hoechst, and mounted on slides with Prolong™ mounting medium. The number refers to the intensity of the aptamer measured with the imageJ program and expressed in arbitrary units.
To analyze cell penetration by apMNKQ2, 3×10^4 cells/well were seeded on cover glasses and the structured, Alexa fluor 488-conjugated aptamer at 250 nM was added to the cell medium at 24 hours. In parallel, the aptamer was transfected with lipofectamine at the same concentration. After 24 hours, the cells were fixed and stained with Hoechst.

With “5′TGGGGTGGGCGGGCGGGGGTGGGGGTGGT-3′ (DNA, backbone and methylation of C not given here; further chemistry not fully specified) [apMNKQ2]” the GI50 (MCF7 cells; MCF7, MTT activity at 48 hours, 0 to 500 nM) was 0.042 µM, the “cell proliferation (MTT activity) reduced to” value (MCF7 cells; MCF7, aptamer 250 nM, 48 hours after transfection) was 51% and the GI50 (MDA-MB-231 cells [1]; MDA-MB-231, MTT activity at 48 hours, 0 to 500 nM) was 0.144 µM. The “cell proliferation (MTT activity) reduced to” value (MDA-MB-231 cells [1]; MDA-MB-231, aptamer 250 nM, 48 hours after transfection) was 36%, the “invasion (transwell with Matrigel)” value (MDA-MB-231 cells [2]) was “significant reduction of invasion” and the “invasion (transwell with Matrigel)” value (MDA-MB-468 cells) was “significant reduction of invasion”. For the same substance, the “penetration into cells without transfectant” value [3] was “capable of only entering the cells, although with a lower intensity”.
